Source: US20150266857A1, “NOVEL 3-INDOL SUBSTITUTED DERIVATIVES, PHARMACEUTICAL COMPOSITIONS AND METHODS FOR USE” (iTeos Therapeutics, priority 2014, published 2015)
Structures can show the parent of a compound that is named as a salt.

target: T1, human glioblastoma A172 cells, naturally expressing hTDO2 (Homo sapiens, UniProt P48775); assay: Cellular assay for TDO2 activity, A172 cells; type: cell-based; conditions: overnight incubation, kynurenine in supernatant
T1 construct: human glioblastoma A172 cells, naturally expressing hTDO2; endogenous in cells; host or cells: human glioblastoma A172 cells (ATCC CRL-1620)
T1 sequence (P48775 whole entry): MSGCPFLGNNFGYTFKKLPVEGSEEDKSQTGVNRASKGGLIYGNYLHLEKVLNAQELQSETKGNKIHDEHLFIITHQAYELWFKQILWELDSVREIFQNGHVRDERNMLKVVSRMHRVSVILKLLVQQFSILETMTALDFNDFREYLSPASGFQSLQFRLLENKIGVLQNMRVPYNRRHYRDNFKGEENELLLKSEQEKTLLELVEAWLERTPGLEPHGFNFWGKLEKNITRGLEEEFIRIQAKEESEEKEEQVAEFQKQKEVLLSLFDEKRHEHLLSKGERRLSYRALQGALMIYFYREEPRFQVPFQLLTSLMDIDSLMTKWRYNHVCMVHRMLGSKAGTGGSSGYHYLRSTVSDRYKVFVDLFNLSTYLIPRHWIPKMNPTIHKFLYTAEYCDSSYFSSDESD
Procedure: The compounds of formula I inhibit the activity of human TDO2 in cells that constitutively express TDO2, such as A172 cells. A172 is a cell line derived from human brain glioblastoma cells. The cells are available from the American Type Culture Collection (ATCC®) as CRL-1620™
The assay (adapted from Pilotte L et al., Proc Natl Acad Sci USA, 2012, 109(7), 2497-502) was performed in 96-well flat bottom plates seeded with human glioblastoma A172 cells, naturally expressing hTDO2 (prepared as described in Tilman et al., Mol Cancer, 2007, 17(6), 80), at a concentration of 1.25×10^4 cells/well in a final volume of 200 μL. To determine TDO, the cells were incubated overnight at 37° C. at 5% CO2 in IMDM (Invitrogen) supplemented with 2% FBS and 2% penicillin/streptomycin in the presence of the compounds of the present invention, at different concentrations.
The plates were then centrifuged 5 min at 1000 rpm, and 100 μL of the supernatant were collected in a conical plate, 30 uL of TCA 30% were added and a further centrifugated at 3000×g for 10 minutes. 100 μL of the supernatant were collected in a flat bottomed plate and 100 μL of 2% (w/v) 4-(dimethylamino)-benzaldehyde in acetic acid and incubated for 5 min at room temperature. Kynurenine concentrations were determined by measuring the absorbance at 480 nm. A standard curve was made with pure kynurenine. The TDO activity was measured as described above using ten serial concentrations of the compounds of the present invention. Data were fitted using the Prism™ software (GraphPad Software, Inc.) using standard parameters.

IC50	Compound
0.826 µM	CS(=O)(=O)NC1CCN(CCS(=O)(=O)NCc2nc3ccc(-c4c[nH]c5cc(F)ccc45)cc3o2)CC1 [Compound 126, N-((6-(6-fluoro-1H-indol-3-yl)benzo[d]oxazol-2-yl)methyl)-2-(4-(methylsulfonamido)piperidin-1-yl)ethanesulfonamide]
1.77 µM	Clc1ccc2[nH]cc(-c3ccc4ocnc4c3)c2c1 [Compound 121, 5-(5-chloro-1H-indol-3-yl)benzo[d]oxazole]
30.7 µM	Cc1nc2cc(CO)c(-c3c[nH]c4cc(F)ccc34)cc2o1 [Compound 137, (6-(6-fluoro-1H-indol-3-yl)-2-methylbenzo[d]oxazol-5-yl)methanol]
0.292 µM	Fc1ccc2c(-c3ccc4c(c3)CNC4)c[nH]c2c1 [Compound 133, 6-fluoro-3-(isoindolin-5-yl)-1H-indole]
0.225 µM	O=C1NC(=O)C(Cc2nc3ccc(-c4c[nH]c5cc(F)ccc45)cc3o2)N1 (stereo not shown) [Compound 129, 5-((6-(6-fluoro-1H-indol-3-yl)benzo[d]oxazol-2-yl)methyl)imidazolidine-2,4-dione]
0.148 µM	CN1CCC(Cc2nc3ccc(-c4c[nH]c5cc(F)ccc45)cc3o2)CC1 [Compound 125, 6-(6-fluoro-1H-indol-3-yl)-2-((1-methylpiperidin-4-yl)methyl)benzo[d]oxazole]
1.15 µM	NC(=O)CCn1cnc2ccc(-c3c[nH]c4cc(F)ccc34)cc21 [Compound 93, 3-(6-(6-fluoro-1H-indol-3-yl)-1H-benzo[d]imidazol-1-yl)propanamide]
0.771 µM	O=S1(=O)NCc2ccc(-c3c[nH]c4cc(F)ccc34)cc21 [Compound 134]
0.442 µM	Fc1ccc2c(-c3ccc4sccc4c3)c[nH]c2c1 [Compound 72, 3-(benzo[b]thiophen-5-yl)-6-fluoro-1H-indole]
1.53 µM	c1ccc2c(-c3ccc4ocnc4c3)c[nH]c2c1 [Compound 118, 5-(1H-indol-3-yl)benzo[d]oxazole]
19 µM	Clc1ccc2c(-c3ccc4ocnc4c3)c[nH]c2c1 [Compound 111, 5-(6-chloro-1H-indol-3-yl)benzo[d]oxazole]
0.372 µM	COc1nc2ccc(-c3c[nH]c4cc(F)ccc34)cc2o1 [Compound 116, 6-(6-fluoro-1H-indol-3-yl)-2-methoxybenzo[d]oxazole]
26 µM	O=C(O)C1CN(CCc2nc3ccc(-c4c[nH]c5cc(F)ccc45)cc3o2)CCN1 (stereo not shown) [Compound 145, 4-(2-(6-(6-fluoro-1H-indol-3-yl)benzo[d]oxazol-2-yl)ethyl)piperazine-2-carboxylic acid]
0.383 µM	C[C@@H]1CN(CCc2nc3ccc(-c4c[nH]c5cc(F)ccc45)cc3o2)C[C@H](C)N1 [Compound 139, 2-(2-(cis-3,5-dimethylpiperazin-1-yl)ethyl)-6-(6-fluoro-1H-indol-3-yl)benzo[d]oxazole]
0.213 µM	O=C(CCn1ncc2cc(-c3c[nH]c4cc(F)ccc34)ccc21)N1CCNCC1 [Compound 91, 3-(5-(6-fluoro-1H-indol-3-yl)-1H-indazol-1-yl)-1-(piperazin-1-yl)propan-1-one]
0.171 µM	Fc1ccc2c(-c3ccc4nc(C5CCNCC5)oc4c3)c[nH]c2c1 [Compound 55, 6-(6-fluoro-1H-indol-3-yl)-2-(piperidin-4-yl)benzo[d]oxazole]
1.09 µM	Nc1nc2ccc(-c3c[nH]c4cc(F)ccc34)cc2[nH]1 [Compound 41, 6-(6-fluoro-1H-indol-3-yl)-1H-benzo[d]imidazol-2-amine]
0.443 µM	CS(=O)(=O)N1CCN(CCc2nc3ccc(-c4c[nH]c5cc(F)ccc45)cc3o2)CC1 [Compound 120, 6-(6-fluoro-1H-indol-3-yl)-2-(2-(4-(methylsulfonyl)piperazin-1-yl)ethyl)benzo[d]oxazole]
3.53 µM	NC(=O)CCn1c(=O)oc2ccc(-c3c[nH]c4cc(F)ccc34)cc21 [Compound 71]
0.979 µM	Fc1ccc2c(-c3ccc4nc(S)oc4c3)c[nH]c2c1 [Compound 112, 6-(6-fluoro-1H-indol-3-yl)benzo[d]oxazole-2-thiol]
0.447 µM	OC1CCN(CCc2nc3ccc(-c4c[nH]c5cc(F)ccc45)cc3o2)CC1 [Compound 140, 1-(2-(6-(6-fluoro-1H-indol-3-yl)benzo[d]oxazol-2-yl)ethyl)piperidin-4-ol]
0.602 µM	Fc1ccc2c(-c3ccc4occc4c3)c[nH]c2c1 [Compound 82, 3-(benzofuran-5-yl)-6-fluoro-1H-indole]

IC50	Compound
3.78 µM	CS(=O)(=O)NCc1nc2ccc(-c3c[nH]c4cc(Cl)ccc34)cc2o1 [Compound 127, N-((6-(6-chloro-1H-indol-3-yl)benzo[d]oxazol-2-yl)methyl)methanesulfonamide]
4.64 µM	NC(=O)CCn1cnc2cc(-c3c[nH]c4cc(F)ccc34)ccc21 [Compound 94, 3-(5-(6-fluoro-1H-indol-3-yl)-1H-benzo[d]imidazol-1-yl)propanamide]
0.52 µM	Fc1ccc2c(-c3ccc4ccoc4c3)c[nH]c2c1 [Compound 146, 3-(benzofuran-6-yl)-6-fluoro-1H-indole]
0.459 µM	Fc1ccc2c(-c3ccc4oc(CN5CCNCC5)nc4c3)c[nH]c2c1 [Compound 61, 5-(6-fluoro-1H-indol-3-yl)-2-(piperazin-1-ylmethyl)benzo[d]oxazole]
0.311 µM	CC(=O)N1CCC(c2nc3ccc(-c4c[nH]c5cc(F)ccc45)cc3o2)CC1 [Compound 56, 1-(4-(6-(6-fluoro-1H-indol-3-yl)benzo[d]oxazol-2-yl)piperidin-1-yl)ethanone]
0.61 µM	Fc1ccc2c(-c3ccc4nc(CCN5CC6(CNC6)C5)oc4c3)c[nH]c2c1 [Compound 143, 2-(2-(2,6-diazaspiro[3.3]heptan-2-yl)ethyl)-6-(6-fluoro-1H-indol-3-yl)benzo[d]oxazole]
0.48 µM	C[C@@H]1CN(CCc2nc3ccc(-c4c[nH]c5cc(F)ccc45)cc3o2)C[C@@H](C)N1 [Compound 142, (+)-2-(2-((3R,5R)-3,5-dimethylpiperazin-1-yl)ethyl)-6-(6-fluoro-1H-indol-3-yl)benzo[d]oxazole]
0.278 µM	NS(=O)(=O)NCc1nc2ccc(-c3c[nH]c4cc(F)ccc34)cc2o1 [Compound 117, Amino{[6-(6-fluoroindol-3-yl)benzoxazol-2-yl]methyl}sulfonamide]
0.802 µM	Fc1ccc2c(-c3ccc4ccsc4c3)c[nH]c2c1 [Compound 79, 3-(benzo[b]thiophen-6-yl)-6-fluoro-1H-indole]
1.02 µM	NC(=O)Cn1cnc2ccc(-c3c[nH]c4cc(F)ccc34)cc21 [Compound 84, 2-(6-(6-fluoro-1H-indol-3-yl)-1H-benzo[d]imidazol-1-yl)acetamide]
1.33 µM	NC(=O)Cn1cnc2cc(-c3c[nH]c4cc(F)ccc34)ccc21 [Compound 85, 2-(5-(6-fluoro-1H-indol-3-yl)-1H-benzo[d]imidazol-1-yl)acetamide]
0.32 µM	O=c1oc2cc(-c3c[nH]c4cc(F)ccc34)ccc2n1C1CCNCC1 [Compound 136, 6-(6-fluoro-1H-indol-3-yl)-3-(piperidin-4-yl)benzo[d]oxazol-2(3H)-one]
0.44 µM	NCc1nc2ccc(-c3c[nH]c4cc(F)ccc34)cc2o1 [Compound 76, (6-(6-fluoro-1H-indol-3-yl)benzo[d]oxazol-2-yl)methanamine hydrochloride]
1.02 µM	CS(=O)(=O)N1CCC(Cc2nc3ccc(-c4c[nH]c5cc(F)ccc45)cc3o2)CC1 [Compound 119, 6-(6-fluoro-1H-indol-3-yl)-2-((1-(methylsulfonyl)piperidin-4-yl)methyl)benzo[d]oxazole]
1.61 µM	NCc1nc2cc(-c3c[nH]c4cc(F)ccc34)ccc2o1 [Compound 81, (5-(6-fluoro-1H-indol-3-yl)benzo[d]oxazol-2-yl)methanamine]
0.464 µM	c1ccc2c(-c3ccc4[nH]ncc4c3)c[nH]c2c1 [Compound 104, 5-(1H-indol-3-yl)-1H-indazole]
0.154 µM	NC(=O)CCc1nc2ccc(-c3c[nH]c4cc(F)ccc34)cc2o1 [Compound 83, 3-(6-(6-fluoro-1H-indol-3-yl)benzo[d]oxazol-2-yl)propanamide]
2.52 µM	NC(=O)CCn1c(=O)oc2cc(-c3c[nH]c4cc(F)ccc34)ccc21 [Compound 67, 3-(6-(6-fluoro-1H-indol-3-yl)-2-oxobenzo[d]oxazol-3(2H)-yl)propanamide]
0.074 µM	O=S1(=O)NCc2cc(-c3c[nH]c4cc(F)ccc34)ccc21 [Compound 135, 5-(6-fluoro-1H-indol-3-yl)-2,3-dihydrobenzo[d]isothiazole 1,1-dioxide]
0.363 µM	CC(=O)NCc1nc2cc(-c3c[nH]c4cc(F)ccc34)ccc2o1 [Compound 73, N-((5-(6-fluoro-1H-indol-3-yl)benzo[d]oxazol-2-yl)methyl)acetamide]
0.24 µM	CS(=O)(=O)CCNC(=O)CCn1ncc2cc(-c3c[nH]c4cc(F)ccc34)ccc21 [Compound 90, 3-(5-(6-fluoro-1H-indol-3-yl)-1H-indazol-1-yl)-N-(2-(methylsulfonyl)ethyl)propanamide]
